Experimental data reported in patent US9725483B2, “Compounds for the treatment and/or care of the skin and/or mucous membranes and their use in cosmetic or pharmaceutical compositions” (LUBRIZOL ADVANCED MATERIALS, INC., priority 2012, dated 2017).
Residues, ends and D or L forms follow the SMILES beside them.

Key:
[1] = tested on: IL-6 release induced by LL-37 in primary human keratinocytes; test: Inhibition of the release of IL-6 induced by LL-37 in primary human keratinocytes (ELISA); type: cell-based; settings: carrier = 100%
Experimental: (§1) Solutions of the compounds of the invention were prepared in Eppendorf tubes at the desired concentrations in complete Epilife® medium with and without LL-37 at 50 μg/mL in a final volume of 250 μL. The mixtures were incubated in rotation for 1 hour at room temperature. After the preincubation hour the samples were collected and they were given a quick pulse in the centrifuge to push all the solution to the bottom of the tube. Without removing the incubation medium, it was added to the 50 μL/well cells of the previous mixtures in quadruplicate and the plate was incubated at 37° C. in a CO2 incubator for 1 hour. After the hour of incubation, 50 μL/well of complete Epilife® medium were added. They were incubated for another 5 hours to allow the release of pro-inflammatory cytokines induced by LL-37 for their subsequent quantification by ELISA. After the 5 hours, the […] of supernatants were collected with the multi-channel pipette and passed to a new 96-well plate and the quantity of IL-6 and IL-8 released was determined by the Human IL-6 ELISA Ready-SET-GO!® and Human IL-8 ELISA Ready-SET-GO!® commercial kits (eBioscience, Inc.) following the supplier's instructions. The absorbency of each well was determined by reading a Multiskan Ascent Reader spectrophotometer at 450 nm correcting for each determination with its corresponding reading at 570 nm. The standardized relative levels of IL-6 and IL-8 were calculated with regard to the absorbency corresponding to the treatment of the cells with carrier. Next, the total number of cells per well was quantified with Cristal Violeta, in order to be able to calculate the percentage of interleukins released per cell.
(§2) In table 4 the results obtained from the release of IL-8 are detailed.

[2] = tested on: IL-8 release induced by LL-37 in primary human keratinocytes; test: Inhibition of the release of IL-8 induced by LL-37 in primary human keratinocytes (ELISA); type: cell-based; settings: carrier = 100%
Experimental: as §1, §2

[3] = target: LL-37, cathelicidin C-terminal antimicrobial peptide (UniProt P49913); test: cell-based or functional assay
[4] = target: collagenase; test: cell-based or functional assay
[5] = target: tyrosinase; test: cell-based or functional assay
[6] = tested on: collagenase; test: Anti-collagenase activity, fluorescein-derivatized gelatin; type: biochemical; settings: collagenase 0.4 U/mL, 2 hours
Experimental: Different concentrations of the peptide Ac-L-Ala-L-Thr-L-Asn-L-Thr-OH (Ac-(SEQ ID NO: 16)-OH) were incubated in a 96-well plate together with fluorescein-derivatized gelatin, a fluorescent marker. Next, collagenase (0.4 U/mL) was added and incubated at room temperature protected from sunlight for 2 hours, after which the fluorescence (λexc=495 nm and λem=515 nm) was measured at different points, thus the breakage in the derivatized gelatin could be quantified. As a positive control 1,10-phenanthroline was used, a metal chelator which acts as an inhibitor of metalloproteases.

[7] = tested on: tyrosinase; test: Anti-tyrosinase activity, L-DOPA substrate; type: biochemical
Experimental: Different concentrations of the peptide […]-OH (Ac-(SEQ ID NO: 16)-OH) were incubated in a 96-well plate together with L-DOPA in a HEPES buffer for 30 minutes at 37° C. After incubation, the tyrosinase enzyme was added and incubated for 10 minutes. The reaction was stopped freezing the plate at -20° C. for 5 minutes, after which the absorbency was measured at λexc=490 nm in a microplate reader. As a positive control kojic acid was added, a substance with known anti-tyrosinase activity.

[8] = tested on: human epidermal melanocytes; test: Inhibition of melanogenesis in human epidermal melanocytes; type: cell-based; settings: repeated treatment to day 10, control (culture medium) = 100
Experimental: Primary human melanocytes were cultivated in medium 254 supplemented by HMGS and antibiotics. The cells were grown for 72 hours after which the medium was changed to 254 supplemented by HMGS-2 and antibiotics. The cells were grown until confluence for 2 weeks, changing the medium every 2-3 days. After two weeks, the cells were trypsinized and seeded in 6-well plates. After being incubated for a whole night at 37° C. and 5% of CO2, the first treatment with the peptide was carried out at different concentrations. As a negative control, only medium was added. The treatment was repeated on days 3, 6, 8 and 10, after which the cells were trypsinized and the number counted with a cell counter. Melanin was quantified by measuring the absorbency at 450 nm with a microplate reader and the value was standardized with regard to the total number of cells per well, expressed as picograms of melanin per cell from a calibration line prepared with synthetic melanin dissolved in 1 N NaOH with 10% DMSO.

[9] = peptide 0.025 mg/mL + LL-37 0.05 mg/ml
[10] = peptide 0.1 mg/mL + LL-37 0.05 mg/ml
[11] = peptide 0.5 mg/mL + LL-37 0.05 mg/ml

In the case of “LL-37: cathelicidin C-terminal antimicrobial peptide, used to induce release of IL-6 and IL-8 (LLGDFFRKSKEKIGKEFKRIVQRIKDFLRNLVPRTES; Antibacterial peptide LL-37; UniProt P49913 134-170, looked up) [reference compound]”, the “% IL-6” value ([1]; LL-37 0.05 mg/ml alone (positive control)) is reported as 122.28% and the “% IL-8” value ([2]; LL37 0.05 mg/ml alone (positive control)) is reported as 142.65%.

“Ac-L-Ala-L-Thr-L-Asn-L-Thr-OH (Ac-(SEQ ID NO: 16)-OH) (peptide)” gave a % IL-6 released by primary human keratinocytes (ELISA), peptide 0.025 mg/mL; carrier 100%, LL-37 0.05 mg/ml alone 122.28% [3] of 107%, a % IL-6 released by primary human keratinocytes (ELISA), peptide 0.1 mg/mL + LL-37 0.05 mg/ml; carrier 100%, LL-37 alone 122.28% [3] of 94.7% and a % IL-6 released by primary human keratinocytes (ELISA), peptide 0.5 mg/mL + LL-37 0.05 mg/ml; carrier 100%, LL-37 alone 122.28% [3] of 92.9%. It also gave a % IL-8 released by primary human keratinocytes (ELISA), peptide 0.025 mg/mL + LL-37 0.05 mg/ml; carrier 100%, LL-37 alone 142.65% [3] of 133%, a % IL-8 released by primary human keratinocytes (ELISA), peptide 0.1 mg/mL + LL-37 0.05 mg/ml; carrier 100%, LL-37 alone 142.65% [3] of 125% and a % IL-8 released by primary human keratinocytes (ELISA), peptide 0.5 mg/mL + LL-37 0.05 mg/ml; carrier 100%, LL-37 alone 142.65% [3] of 109%. For the same compound, the % collagenase inhibition (cleavage of fluorescein-derivatized gelatin, collagenase 0.4 U/mL), peptide 2 mg/mL [4] was 29.2%, the % collagenase inhibition (cleavage of fluorescein-derivatized gelatin, collagenase 0.4 U/mL), peptide 10 mg/mL [4] was 100% and the % tyrosinase inhibition (L-DOPA oxidation, absorbance 490 nm), peptide 2 mg/mL [5] was 38.2%. It also gave a % tyrosinase inhibition (L-DOPA oxidation, absorbance 490 nm), peptide 3 mg/mL [5] of 76% and a % tyrosinase inhibition (L-DOPA oxidation, absorbance 490 nm), peptide 4 mg/mL [5] of 86.5%.

With “Ac-L-Ser-L-Val-L-Arg-L-Val-L-Ala-L-Val-NH2 (Ac-SVRVAV-NH2)” the “% IL-6” value [1, 9] was 108.35%, the “% IL-6” value [1, 10] was 95.96% and the “% IL-6” value [1, 11] was 93.15%. The “% IL-8” value [2, 9] was 132.92%, the “% IL-8” value [2, 10] was 125.05% and the “% IL-8” value [2, 11] was 109.24%.

In the case of `CC(=O)N[C@@H](C)C(=O)N[C@H](C(=O)N[C@@H](CC(N)=O)C(=O)N[C@H](C(=O)O)[C@@H](C)O)[C@@H](C)O` [Ac-L-Ala-L-Thr-L-Asn-L-Thr-OH] (Ac-ATNT-OH), the “% IL-6” value [1, 9] is reported as 107.25%, the “% IL-6” value [1, 10] is reported as 94.65% and the “% IL-6” value [1, 11] is reported as 92.90%. The “% IL-8” value [2, 9] was 132.70%, the “% IL-8” value [2, 10] was 124.76% and the “% IL-8” value [2, 11] was 109.39%. The “% collagenase inhibition” value ([6]; 2 mg/mL) was 29.21%, the “% collagenase inhibition” value ([6]; 10 mg/mL) was 100% and the “% tyrosinase inhibition” value ([7]; 2 mg/mL) was 38.23%. For the same compound, the “% tyrosinase inhibition” value ([7]; 3 mg/mL) was 76.01%, the “% tyrosinase inhibition” value ([7]; 4 mg/mL) was 86.45% and the “% melanin (pg/cel)” value ([8]; 0.25 mg/mL) was 45.7 ± 3.2%. For the same compound, the “% melanin (pg/cel)” value ([8]; 0.625 mg/mL) was 55.8 ± 2.8%.

`c1cnc2c(c1)ccc1cccnc12` [1,10-phenanthroline, reference compound] was tested, and the “% collagenase inhibition” value ([6]; 40 μg/mL) was 95.19%.

“Ac-L-Ser-L-Val-L-Arg-L-Val-L-Ala-L-Val-NH2 (Ac-(SEQ ID NO: 2)-NH2) (peptide)” gave a % IL-6 released by primary human keratinocytes (ELISA), peptide 0.025 mg/mL + LL-37 0.05 mg/ml; carrier 100%, LL-37 alone 122.28% [3] of 108%, a % IL-6 released by primary human keratinocytes (ELISA), peptide 0.1 mg/mL + LL-37 0.05 mg/ml; carrier 100%, LL-37 alone 122.28% [3] of 96% and a % IL-6 released by primary human keratinocytes (ELISA), peptide 0.5 mg/mL + LL-37 0.05 mg/ml; carrier 100%, LL-37 alone 122.28% [3] of 93.2%. The % IL-8 released by primary human keratinocytes (ELISA), peptide 0.025 mg/mL + LL-37 0.05 mg/ml; carrier 100%, LL-37 alone 142.65% [3] was 133%, the % IL-8 released by primary human keratinocytes (ELISA), peptide 0.1 mg/mL + LL-37 0.05 mg/ml; carrier 100%, LL-37 alone 142.65% [3] was 125% and the % IL-8 released by primary human keratinocytes (ELISA), peptide 0.5 mg/mL + LL-37 0.05 mg/ml; carrier 100%, LL-37 alone 142.65% [3] was 109%.

`O=c1cc(CO)occ1O` [kojic acid, reference compound] was tested, and the “% tyrosinase inhibition” value ([7]; 140 μg/mL) was 85.79%.
